Experimental data from ChEMBL document CHEMBL1155545, “Design, synthesis and evaluation of 2,4-disubstituted pyrimidines as cholinesterase inhibitors” (Bioorg Med Chem Lett, 2010).

What was measured:
Cholinesterase = Cholinesterase (Equus caballus, UniProt P81908)
Description: Inhibition of equine serum BuChE

Acetylcholinesterase = Acetylcholinesterase (Electrophorus electricus, UniProt O42275)
Sequence of Acetylcholinesterase (O42275 whole entry): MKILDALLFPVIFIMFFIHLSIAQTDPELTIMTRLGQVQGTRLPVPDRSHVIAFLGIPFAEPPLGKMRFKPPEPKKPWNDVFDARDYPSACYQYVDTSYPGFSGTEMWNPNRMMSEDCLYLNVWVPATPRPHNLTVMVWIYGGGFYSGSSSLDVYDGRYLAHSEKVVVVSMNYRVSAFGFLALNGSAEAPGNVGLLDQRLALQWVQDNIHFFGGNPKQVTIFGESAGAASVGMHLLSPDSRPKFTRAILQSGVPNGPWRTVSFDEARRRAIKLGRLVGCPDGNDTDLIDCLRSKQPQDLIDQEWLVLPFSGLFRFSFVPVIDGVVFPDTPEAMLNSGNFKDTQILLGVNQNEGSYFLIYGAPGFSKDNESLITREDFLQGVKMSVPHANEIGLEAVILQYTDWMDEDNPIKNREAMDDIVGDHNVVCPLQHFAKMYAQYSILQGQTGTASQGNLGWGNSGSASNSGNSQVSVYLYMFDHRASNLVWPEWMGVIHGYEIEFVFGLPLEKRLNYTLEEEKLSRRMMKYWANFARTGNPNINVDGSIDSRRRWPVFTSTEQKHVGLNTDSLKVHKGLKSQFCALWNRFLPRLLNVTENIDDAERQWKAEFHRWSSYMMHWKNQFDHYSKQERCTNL
Description: Inhibition of electric eel AChE

Sequence of Cholinesterase (P81908 whole entry): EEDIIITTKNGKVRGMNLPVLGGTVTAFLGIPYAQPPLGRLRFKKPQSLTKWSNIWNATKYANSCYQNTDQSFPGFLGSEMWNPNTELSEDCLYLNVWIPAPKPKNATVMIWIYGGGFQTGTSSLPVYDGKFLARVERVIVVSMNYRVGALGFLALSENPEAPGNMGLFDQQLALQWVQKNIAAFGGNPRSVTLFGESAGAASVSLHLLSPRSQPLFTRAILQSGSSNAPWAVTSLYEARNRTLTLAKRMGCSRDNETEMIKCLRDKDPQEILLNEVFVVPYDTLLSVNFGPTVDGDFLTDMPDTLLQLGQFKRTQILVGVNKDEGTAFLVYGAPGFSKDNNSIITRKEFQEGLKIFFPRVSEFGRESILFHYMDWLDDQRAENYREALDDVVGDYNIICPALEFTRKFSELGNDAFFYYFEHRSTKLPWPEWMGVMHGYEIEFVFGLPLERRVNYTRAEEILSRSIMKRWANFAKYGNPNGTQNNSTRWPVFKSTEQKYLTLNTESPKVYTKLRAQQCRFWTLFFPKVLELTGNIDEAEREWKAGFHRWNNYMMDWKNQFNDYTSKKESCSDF

Row | SMILES | IC50 (Cholinesterase) [µM] | IC50 (Acetylcholinesterase) [µM]
1 | CC1CCN(c2nccc(NCc3ccccc3)n2)CC1 | 2.9 | 0.39
2 | c1ccc(CCNc2ccnc(N3CCSCC3)n2)cc1 | > 100 | 25
3 | CN1CCN(c2nccc(NCCc3ccccc3)n2)CC1 | > 100 | 14.4
4 | CC1CCN(c2nccc(NCCc3ccccc3)n2)CC1 | 17.7 | 7.9
5 | c1ccc2c(CNc3ccnc(N4CCCC4)n3)cccc2c1 | 8.9 | 5.8
6 | c1ccc2c(CNc3ccnc(N4CCOCC4)n3)cccc2c1 | 28 | 15.7
7 | c1ccc2c(CNc3ccnc(N4CCSCC4)n3)cccc2c1 |  | 15.5
8 | CN1CCN(c2nccc(NCc3cccc4ccccc34)n2)CC1 | 2.6 | 17.6
9 | CN1CCN(c2nccc(NCc3ccccc3)n2)CC1 | > 100 | 0.56
10 | c1ccc(CCNc2ccnc(N3CCOCC3)n2)cc1 | > 100 | 4.8
11 | c1ccc(CNc2ccnc(N3CCCC3)n2)cc1 | 26.4 | 9.8
12 | c1ccc(CNc2ccnc(N3CCOCC3)n2)cc1 |  | 0.5
13 | c1ccc(CNc2ccnc(N3CCSCC3)n2)cc1 | 2.3 | 0.33
14 | c1ccc2c(NCCCCCCCNc3c4c(nc5ccccc35)CCCC4)c3c(nc2c1)CCCC3 | 0.0105 | 0.0018
